Here are results for 28 molecules from patent publication US20120157452A1, “1H-PYRAZOLO[3,4-B] PYRIDINE COMPOUNDS FOR INHIBITING RAF KINASE” (GENENTECH, INC., priority 2009, published 2012).

For this assay, the target named is T1, V600E full-length B-Raf (Homo sapiens, UniProt P15056, V600E).
T1 construct: made in house; host or cells: Sf9 insect cells (baculovirus)
Kind of assay: B-Raf IC50 assay: incorporation of radio labeled phosphate from [γ-33P]ATP into FSBA-modified wild-type MEK. The format is biochemical. The source says: Determining the activity of Raf in the sample is possible by a number of direct and indirect detection methods (US 2004/0082014). Activity of human recombinant B-Raf protein may be assessed in vitro by assay of the incorporation of radio labeled phosphate to recombinant MAP kinase (MEK), a known physiologic substrate of B-Raf, according to US 2004/0127496 and WO 03/022840. The activity/inhibition of V600E full-length B-Raf was estimated by measuring the incorporation of radio labeled phosphate from [γ-^33]ATP into FSBA-modified wild-type MEK (see Biological Example 1).
Activity of human recombinant B-Raf protein may be assessed in vitro by assay of the incorporation of radio labeled phosphate to recombinant MAP kinase (MEK), a known physiologic substrate of B-Raf, according to US 2004/0127496 and WO 03/022840. Catalytically active human recombinant B-Raf protein is obtained by purification from sf9 insect cells infected with a human B-Raf recombinant baculovirus expression vector.
The activity/inhibition of V600E full-length B-Raf was estimated by measuring the incorporation of radio labeled phosphate from [γ-^33]ATP into FSBA-modified wild-type MEK. The 30-μL, assay mixtures contained 25 mM Na Pipes, pH 7.2, 100 mM KCl, 10 mM MgCl2, 5 mM β-glycerophosphate, 100 μM Na Vanadate, 4 μM ATP, 500 nCi [γ-^33P]ATP, 1 μM FSBA-MEK and 20 nM V600E full-length B-Raf. Incubations were carried out at 22° C. in a Costar 3365 plate (Corning). Prior to the assay, the B-Raf and FSBA-MEK were preincubated together in assay buffer at 1.5× (20 μL of 30 nM and 1.5 μM, respectively) for 15 minutes, and the assay was initiated by the addition of 10 μL of […]. Following the 60-minute incubation, the assay mixtures were quenched by the addition of 100 μL of 25% TCA, the plate was mixed on a rotary shaker for 1 minute, and the product was captured on a Perkin-Elmer GF/B filter plate using a Tomtec Mach III Harvester. After sealing the bottom of the plate, 35 μL of Bio-Safe II (Research Products International) scintillation cocktail were added to each well and the plate was top-sealed and counted in a Topcount NXT (Packard).

Where [1] appears, read: 4 μM ATP, 60-minute incubation, representative data of multiple tests.

The structures appear in SMILES notation. pIC50: −log10 of the molar value.

T1 sequence (P15056 whole entry V600E): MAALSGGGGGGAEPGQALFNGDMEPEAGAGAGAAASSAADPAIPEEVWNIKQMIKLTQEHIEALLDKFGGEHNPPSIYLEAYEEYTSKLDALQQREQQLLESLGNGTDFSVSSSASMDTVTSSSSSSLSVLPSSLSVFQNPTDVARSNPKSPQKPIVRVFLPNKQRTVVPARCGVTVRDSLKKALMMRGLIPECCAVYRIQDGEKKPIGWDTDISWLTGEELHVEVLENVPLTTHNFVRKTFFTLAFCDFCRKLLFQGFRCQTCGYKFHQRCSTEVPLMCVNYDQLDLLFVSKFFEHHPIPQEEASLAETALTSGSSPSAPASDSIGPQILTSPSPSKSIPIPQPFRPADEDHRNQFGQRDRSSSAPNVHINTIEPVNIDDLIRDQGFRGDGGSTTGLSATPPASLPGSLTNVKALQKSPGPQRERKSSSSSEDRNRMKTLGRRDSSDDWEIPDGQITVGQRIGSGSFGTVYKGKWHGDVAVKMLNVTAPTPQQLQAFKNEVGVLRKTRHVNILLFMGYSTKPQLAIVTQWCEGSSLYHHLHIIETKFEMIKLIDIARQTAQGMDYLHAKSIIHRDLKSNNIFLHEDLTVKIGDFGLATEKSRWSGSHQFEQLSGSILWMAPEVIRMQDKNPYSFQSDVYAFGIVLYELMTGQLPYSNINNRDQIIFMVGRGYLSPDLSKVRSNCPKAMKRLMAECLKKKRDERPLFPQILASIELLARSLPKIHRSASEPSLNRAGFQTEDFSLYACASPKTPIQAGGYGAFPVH

Turning to `COc1n[nH]c2ncc(NC(=O)c3cccc(OCc4ccccc4)c3)cc12` [Example 1, 3-(benzyloxy)-N-(3-methoxy-1H-pyrazolo[3,4-b]pyridin-5-yl)benzamide], the pIC50 (in general, the IC50 on a negative log10 scale, so that one unit is a factor of ten) under setting [1] was 6.37 and the pIC50 (bound stated) was over 6.30. For the molecule `COc1n[nH]c2ncc(NC(=O)c3cc(OCc4ccccc4)ccc3F)cc12` [Example 2, 5-(benzyloxy)-2-fluoro-N-(3-methoxy-1H-pyrazolo[3,4-b]pyridin-5-yl)benzamide], the pIC50 was 7.25 under setting [1] and over 7.00 (bound stated). Turning to `COc1n[nH]c2ncc(NC(=O)c3c(Cl)ccc(OCc4ccccc4F)c3F)cc12` [Example 3, 6-chloro-2-fluoro-3-(2-fluorobenzyloxy)-N-(3-methoxy-1H-pyrazolo[3,4-b]pyridin-5-yl)benzamide], the negative logarithm of the IC50 (pIC50) was 9.36 under setting [1] and over 7.00 (bound stated). In the case of `COc1n[nH]c2ncc(NC(=O)c3c(Cl)ccc(OCc4ccccc4)c3F)cc12` [Example 4, 3-(benzyloxy)-6-chloro-2-fluoro-N-(3-methoxy-1H-pyrazolo[3,4-b]pyridin-5-yl)benzamide], the pIC50 runs as follows: under setting [1], 9.21; (bound stated) over 7.00. In the case of `COc1n[nH]c2ncc(NC(=O)c3c(C)ccc(OCc4ccccc4)c3F)cc12` [Example 5, 3-(benzyloxy)-2-fluoro-N-(3-methoxy-1H-pyrazolo[3,4-b]pyridin-5-yl)-6-methylbenzamide], the negative logarithm of the IC50 (pIC50) runs as follows: under setting [1], 8.97; (bound stated) over 7.00. With `CCc1n[nH]c2ncc(NC(=O)c3c(Cl)ccc(OCc4ccccc4)c3F)cc12` [Example 6, 3-(benzyloxy)-6-chloro-N-(3-ethyl-1H-pyrazolo[3,4-b]pyridin-5-yl)-2-fluorobenzamide], the negative-log IC50 (pIC50) by setting is: under setting [1], 8.60; (bound stated) over 7.00. Consider `CN(C)c1n[nH]c2ncc(NC(=O)c3c(Cl)ccc(OCc4ccccc4)c3F)cc12` [Example 7, 3-(benzyloxy)-6-chloro-N-(3-(dimethylamino)-1H-pyrazolo[3,4-b]pyridin-5-yl)-2-fluorobenzamide], for which the pIC50 runs as follows: under setting [1], 8.32; (bound stated) over 7.00. The matching figures for `O=C(Nc1cnc2[nH]nc(C(F)(F)F)c2c1)c1c(Cl)ccc(OCc2ccccc2)c1F` [Example 8, 3-(benzyloxy)-6-chloro-2-fluoro-N-(3-(trifluoromethyl)-1H-pyrazolo[3,4-b]pyridin-5-yl)benzamide]: 8.23 and over 7.00.

Regarding `O=C(Nc1cnc2[nH]nc(-c3ccco3)c2c1)c1c(Cl)ccc(OCc2ccccc2)c1F` [Example 9, 3-(benzyloxy)-6-chloro-2-fluoro-N-(3-(furan-2-yl)-1H-pyrazolo[3,4-b]pyridin-5-yl)benzamide], the pIC50 by setting is: under setting [1], 8.93; (bound stated) over 7.00. As for `CC(C)c1n[nH]c2ncc(NC(=O)c3c(Cl)ccc(OCc4ccccc4)c3F)cc12` [Example 10, 3-(benzyloxy)-6-chloro-2-fluoro-N-(3-isopropyl-1H-pyrazolo[3,4-b]pyridin-5-yl)benzamide], the negative logarithm of the IC50 (pIC50) reads like this: under setting [1], 8.64; (bound stated) over 7.00. On to `CNc1n[nH]c2ncc(NC(=O)c3c(Cl)ccc(OCc4ccccc4)c3F)cc12` [Example 11, 3-benzyloxy-6-chloro-2-fluoro-N-(3-(methylamino)-1H-pyrazolo[3,4-b]pyridin-5-yl)benzamide], for which the negative logarithm of the IC50 (pIC50) under setting [1] is 8.15 and the negative-log IC50 (pIC50) (bound stated) is over 7.00. With `CSc1n[nH]c2ncc(NC(=O)c3c(Cl)ccc(OCc4ccccc4)c3F)cc12` [Example 12, 3-(benzyloxy)-6-chloro-2-fluoro-N-(3-(methylthio)-1H-pyrazolo[3,4-b]pyridin-5-yl)benzamide], the negative-log IC50 (pIC50) was 8.73 under setting [1] and over 7.00 (bound stated). `COCCOc1n[nH]c2ncc(NC(=O)c3c(Cl)ccc(OCc4ccccc4)c3F)cc12` [Example 13, 3-(benzyloxy)-6-chloro-2-fluoro-N-(3-(2-methoxyethoxy)-1H-pyrazolo[3,4-b]pyridin-5-yl)benzamide]: the pIC50 reads like this: under setting [1], 8.72; (bound stated) over 7.00. With `CCOc1n[nH]c2ncc(NC(=O)c3c(Cl)ccc(OCc4ccccc4)c3F)cc12` [Example 14, 3-(benzyloxy)-6-chloro-N-(3-ethoxy-1H-pyrazolo[3,4-b]pyridin-5-yl)-2-fluorobenzamide], the pIC50 by setting is: under setting [1], 9.03; (bound stated) over 7.00.

Regarding `O=C(Nc1cnc2[nH]nc(OCCO)c2c1)c1c(Cl)ccc(OCc2ccccc2)c1F` [Example 15, 3-(benzyloxy)-6-chloro-2-fluoro-N-(3-(2-hydroxyethoxy)-1H-pyrazolo[3,4-b]pyridine-5-yl)benzamide], the pIC50 was 8.58 under setting [1] and over 7.00 (bound stated).

As to `CC(C)Oc1n[nH]c2ncc(NC(=O)c3c(Cl)ccc(OCc4ccccc4)c3F)cc12` [Example 16, 3-(benzyloxy)-6-chloro-2-fluoro-N-(3-isopropoxy-1H-pyrazolo[3,4-b]pyridin-5-yl)benzamide], the pIC50 runs as follows: under setting [1], 8.77; (bound stated) over 7.00.

With `CN(C)CCOc1n[nH]c2ncc(NC(=O)c3c(Cl)ccc(OCc4ccccc4)c3F)cc12` [Example 17, 3-(benzyloxy)-6-chloro-N-(3-(2-(dimethylamino)ethoxy)-1H-pyrazolo[3,4-b]pyridin-5-yl)-2-fluorobenzamide], the pIC50 is 7.96 under setting [1] and over 7.00 (bound stated). The matching figures for `O=C(Nc1cnc2[nH]nc(OCCF)c2c1)c1c(Cl)ccc(OCc2ccccc2)c1F` [Example 18, 3-(benzyloxy)-6-chloro-2-fluoro-N-(3-(2-fluoroethoxy)-1H-pyrazolo[3,4-b]pyridine-5-yl)benzamide]: 9.09 and over 7.00. The molecule `COc1n[nH]c2ncc(NC(=O)c3c(Cl)ccc(OCc4ccc(C(F)(F)F)cc4)c3F)cc12` [Example 19, 6-chloro-2-fluoro-N-(3-methoxy-1H-pyrazolo[3,4-b]pyridin-5-yl)-3-(4-(trifluoromethyl)benzyloxy)benzamide] gave a negative-log IC50 (pIC50) under setting [1] of 8.69 and a negative logarithm of the IC50 (pIC50) (bound stated) of over 7.00. `CC1(c2n[nH]c3ncc(NC(=O)c4c(Cl)ccc(OCc5ccccc5)c4F)cc23)CC1` [Example 20, 3-(benzyloxy)-6-chloro-2-fluoro-N-(3-(1-methylcyclopropyl)-1H-pyrazolo[3,4-b]pyridin-5-yl)benzamide]: the negative logarithm of the IC50 (pIC50) is 8.46 under setting [1] and over 7.00 (bound stated). On to `COc1n[nH]c2ncc(NC(=O)c3cccc(OCc4ccccc4)c3Cl)cc12` [Example 21, 3-(benzyloxy)-2-chloro-N-(3-methoxy-1H-pyrazolo[3,4-b]pyridin-5-yl)benzamide], for which the negative logarithm of the IC50 (pIC50) is, setting by setting: under setting [1], 7.14; (bound stated) over 7.00. For `COc1n[nH]c2ncc(NC(=O)c3cccc(OCc4ccccc4)c3C)cc12` [Example 22, 3-(benzyloxy)-N-(3-methoxy-1H-pyrazolo[3,4-b]yridine-5-yl)-2-methylbenzamide], under setting [1], the pIC50 was 6.23. On to `COc1n[nH]c2ncc(NC(=O)c3cc(OCc4ccccc4)ccc3Cl)cc12` [Example 23, 5-(benzyloxy)-2-chloro-N-(3-methoxy-1H-pyrazolo[3,4-b]pyridin-5-yl)benzamide], for which the negative-log IC50 (pIC50) reads like this: under setting [1], 8.40; (bound stated) over 7.00.

For the molecule `COc1n[nH]c2ncc(NC(=O)c3cc(OCc4ccccn4)ccc3Cl)cc12` [Example 24, 2-chloro-N-(3-methoxy-1H-pyrazolo[3,4-b]pyridin-5-yl)-5-(pyridin-2-ylmethoxy)benzamide], the pIC50 reads like this: under setting [1], 7.19; (bound stated) over 7.00. On to `COc1n[nH]c2ncc(NC(=O)c3c(Cl)ccc(OCc4ccccc4)c3Cl)cc12` [Example 25, 3-(benzyloxy)-2,6-dichloro-N-(3-methoxy-1H-pyrazolo[3,4-b]pyridin-5-yl)benzamide], for which the pIC50 reads like this: under setting [1], 7.91; (bound stated) over 7.00. As for `COc1n[nH]c2ncc(NC(=O)c3c(F)ccc(OCc4ccccc4)c3F)cc12` [Example 26, 3-(benzyloxy)-2,6-difluoro-N-(3-methoxy-1H-pyrazolo[3,4-b]pyridin-5-yl)benzamide], the negative-log IC50 (pIC50) under setting [1] is 8.62 and the negative-log IC50 (pIC50) (bound stated) was over 7.00. For `COc1n[nH]c2ncc(NC(=O)c3cc(OCc4ccccc4)ccc3C)cc12` [Example 27, 5-(benzyloxy)-N-(3-methoxy-1H-pyrazolo[3,4-b]pyridin-5-yl)-2-methylbenzamide], the negative-log IC50 (pIC50) reads like this: under setting [1], 8.53; (bound stated) over 7.00.

Molecule `COc1n[nH]c2ncc(NC(=O)c3c(Cl)ccc(OCc4cccc(F)c4)c3F)cc12` [Example 28, 6-chloro-2-fluoro-3-(3-fluorobenzyloxy)-N-(3-methoxy-1H-pyrazolo[3,4-b]pyridin-5-yl)benzamide] gave a negative-log IC50 (pIC50) under setting [1] of 9.08 and a negative logarithm of the IC50 (pIC50) (bound stated) of over 7.00.
